Assay results as given in paper PMC10545732, “Structure-based drug discovery of a corticotropin-releasing hormone receptor 1 antagonist using an X-ray free-electron laser” (Experimental & Molecular Medicine, 2023).

Key:
CORT serum levels = experiment: Serum CORT level after TST (LC-MS); format: in vivo, mice; settings: 30 mg/kg orally for 3 days, immediately after TST
Procedure: The mice were anesthetized via intraperitoneal injections of 2,2,2-tribromoethanol (300 mg/kg, Sigma-Aldrich) immediately after the TST and before blood from the heart was sampled. Blood samples were collected in plastic tubes and incubated at room temperature for at least 2 h. The sera were extracted after centrifugation at 13,000×g for 10 min at 4 °C. CORT levels were determined via LC‒MS analysis. Serum (10 µL) was mixed with 20 μL of an internal standard solution (d4-cortisol) to prepare the samples. Subsequently, 100 μL of acetonitrile was added, and the mixture was centrifuged at 16,000×g for 10 min for protein precipitation. The supernatants (60 μL) were transferred into an autosampler vial, and 30 μL of water was added for efficient separation via high-performance liquid chromatography (HPLC). LC‒MS was performed with a triple quadrupole mass spectrometer coupled with HPLC using a C18 reversed-phase column. CORT levels were determined using a calibration curve constructed using CORT-spiked mouse serum. Serum samples (20 μL) were analyzed using a commercially available ELISA kit for ACTH (ab263880, Abcam) to measure ACTH serum levels.

CYP2D6 = CYP2D6 (Homo sapiens, UniProt P10635); experiment: CYP inhibition assay CYP2D6 (dextromethorphan O-demethylase); settings: 10 μM, human liver microsomes, n = 3
Sequence of CYP2D6 (P10635 whole entry): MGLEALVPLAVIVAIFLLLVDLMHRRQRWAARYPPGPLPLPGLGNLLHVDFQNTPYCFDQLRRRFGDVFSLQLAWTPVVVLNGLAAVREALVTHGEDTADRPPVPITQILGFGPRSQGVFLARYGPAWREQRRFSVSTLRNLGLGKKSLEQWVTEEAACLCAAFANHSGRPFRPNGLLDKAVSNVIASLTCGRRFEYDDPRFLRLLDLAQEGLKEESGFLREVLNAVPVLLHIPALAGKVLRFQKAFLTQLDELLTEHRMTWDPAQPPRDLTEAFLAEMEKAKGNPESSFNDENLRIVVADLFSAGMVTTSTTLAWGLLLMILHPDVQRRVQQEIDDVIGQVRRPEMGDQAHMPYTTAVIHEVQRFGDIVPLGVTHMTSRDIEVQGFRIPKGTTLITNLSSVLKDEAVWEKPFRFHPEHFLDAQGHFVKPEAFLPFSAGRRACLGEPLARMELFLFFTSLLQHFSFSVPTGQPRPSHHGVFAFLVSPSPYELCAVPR
Procedure: Phenacetin O-demethylase, diclofenac 4-hydroxylase, S-mephenytoin 4-hydroxylase, dextromethorphan O-demethylase, and midazolam 1’-hydroxylase activities were determined as probe activities for CYP1A2, CYP2C9, CYP2C19, CYP2D6, and CYP3A4, respectively, using cocktail incubation. […] The cocktail incubation mixtures consisted of 0.25 mg/mL human liver microsomes, 0.1 M phosphate buffer (pH 7.4), an NADPH regeneration system, and inhibitors (CRF1R antagonist compounds, 10 µM) in a total volume of 100 μL. The final volume of the organic solvents in the incubation mixture was 1% (v/v). […] All incubations were performed in triplicate, and the mean values were used for analysis. The samples were then centrifuged at 15,000 rpm for 5 min at 4 °C. […] The CYP-mediated activities in the presence of inhibitors were expressed as percentages of the corresponding control values.

hCMECs/D3 = experiment: In vitro BBB permeability assay; format: in vitro ADME, human
Procedure: Human cerebral microvascular endothelial cells (hCMECs/D3, SCC066; Sigma-Aldrich) were used to assess the permeability of CRF1R antagonists across the BBB. hCMECs were seeded on Falcon^TM cell culture inserts (08-770, Fisher Scientific) with 0.4 μm pore sizes precoated with collagen type I from rat tails (354236, Corning) at a density of 50,000 cells/mL in endothelial cell growth medium-2 (EGM-2, CC-3162; Lonza). The medium was changed with EGM-2 every three to four days for proliferation and with EGM-2 containing 2.5% human serum (SLBX6020, Sigma-Aldrich) for differentiation. Cell culture inserts were transferred into 24-well plates containing 700 μL of EGM-2 in each well (basolateral compartment) for the permeability assay. The medium in the inserts (apical compartment) was then replaced with 300 μL EGM-2 containing 10 μM BMK-C203 or BMK-C205. Apical and basolateral compartments were collected after a 12-h incubation at 37 °C, and drug concentrations were measured using HPLC. For sample preparation, 50 μL of the sample was mixed with 10 μL of an internal standard solution (d4-cortisol). Subsequently, 50 μL of acetonitrile was added, and the mixture was centrifuged at 16,000×g for 10 min for protein precipitation. The supernatants were used for LC‒MS analysis with a triple quadrupole mass spectrometer coupled with HPLC using a C18 reversed-phase column. The concentration of the antagonists was determined using a calibration curve. The permeability coefficient (P) was calculated according to Pardridge et al.[34]. The permeability-surface area product (PS, in cm^3/s) was divided by the filter surface area A (in cm^2) using Eq. (1) as follows:1 Pcm/s=Vd×△Ma/A×[…]×△t where Vd is the volume in the donor compartment in cm^3, ΔMa is the total amount of the compound in the […] compartment after t seconds, Md is the donor amount, Δt is the incubation time, and A is the filter area in cm^2.

Row | Structure (SMILES) | serum CORT level versus vehicle (CORT serum levels) | CYP2D6, percentage of control activity (CYP2D6) | permeability coefficient relative to BMK-C203 (hCMECs/D3)
1 | COc1cc(Br)cc(OC)c1-c1c(C)nn2c(N(CCCC(F)(F)F)CCCC(F)(F)F)nc(C)nc12 [BMK-C203] | did not significantly affect | > 100 ± 4.0 percentage of control activity | –
2 | CCCCN(CC1CC1)c1nc(C)nc2c(-c3c(OC)cc(Br)cc3OC)c(C)nn12 [BMK-C205] | decreased | > 100 ± 3.8 percentage of control activity | seven times higher
